The source of these data is PubChem BioAssay (NCI).

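All cell lines were grown in 96-well plates and treated with compound for 48 hours. GI50 is the concentration that inhibits growth by half. TGI marks complete inhibition of growth.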

Among the test systems are IGROV1 ovarian; HCT-116 colon; SK-MEL-28 melanoma; NCI-H460 lung; KM20L2 colon; NCI-H23 lung; DLD-1 colon; SK-OV-3 ovarian; NCI/ADR-RES ovarian; DU-145 prostate.
What all share (assay): inhibition of tumour cell growth, NCI panel, 48 h

`COc1ccc(C2=NC(C)(C)CO2)cc1`: the TGI in the assay on IGROV1 ovarian, with HCT-116 colon, in the assay on SK-MEL-28 melanoma, with NCI-H460 lung, in the assay with KM20L2 colon and in the assay on NCI-H23 lung was over 100 µM throughout. In addition, the TGI with DLD-1 colon was over 100 µM.

With `Clc1ccc(CNc2nc3ccccc3nc2-c2cccs2)c(Cl)c1`, the TGI in the assay with HCT-116 colon, in the assay with SK-MEL-28 melanoma, with NCI-H460 lung, in the assay with KM20L2 colon and with NCI-H23 lung was over 100 µM each time.

As to `CCOc1cccc2nc3cccc(C(=O)NCCN(C)C)c3nc12`, the TGI is over 35.4 µM in the assay with SK-OV-3 ovarian; 2.37 µM with HCT-116 colon; 3.77 µM in the assay with SK-MEL-28 melanoma; 5.48 µM in the assay on KM20L2 colon; 4.45 µM in the assay with NCI-H23 lung; 7.66 µM in the assay with DLD-1 colon.

On to `Clc1cc(Cl)c2c(Cl)cc(Cl)c3c2c1N=S=N3`, for which the TGI in the assay on IGROV1 ovarian, in the assay on SK-OV-3 ovarian, in the assay with HCT-116 colon, in the assay with SK-MEL-28 melanoma, with KM20L2 colon and in the assay with NCI-H23 lung was over 100 µM each time. The same molecule gave a TGI in the assay on DLD-1 colon of over 100 µM.

For the molecule `CCOC(=O)Cc1nc(/C(C#N)=C/c2ccco2)[nH]c(=O)c1C#N`, the TGI with IGROV1 ovarian, with SK-OV-3 ovarian, in the assay with HCT-116 colon, in the assay on NCI-H460 lung, in the assay with KM20L2 colon and in the assay with NCI-H23 lung was over 100 µM each time. Further, in the assay with DLD-1 colon, the TGI was over 100 µM.

In the case of `COc1ccc(C2C(N)=NCC2c2ccccn2)cc1` (stereo not drawn), the TGI in the assay on IGROV1 ovarian, in the assay on SK-OV-3 ovarian, in the assay on HCT-116 colon, with SK-MEL-28 melanoma, in the assay with NCI-H460 lung and in the assay with KM20L2 colon was over 100 µM each time. The TGI in the assay with NCI-H23 lung and with DLD-1 colon was over 100 µM throughout.

As to `Oc1c2c(c(O)c3ccccc13)=N[C@@H](c1ccccc1)[C@H](c1ccccc1)N=2`, the TGI in the assay with IGROV1 ovarian, with SK-OV-3 ovarian, in the assay with HCT-116 colon, with SK-MEL-28 melanoma, in the assay with NCI-H460 lung and in the assay with NCI-H23 lung was over 100 µM in each case. The molecule further showed a TGI in the assay with DLD-1 colon of over 100 µM.

Consider `CC1(C)CCc2cc3c(cc2O1)OCCC3=O`, for which the TGI with IGROV1 ovarian, with SK-OV-3 ovarian, with HCT-116 colon, in the assay with NCI-H460 lung, with KM20L2 colon and in the assay on NCI-H23 lung was over 100 µM throughout. The molecule also yielded a TGI in the assay on DLD-1 colon of over 100 µM.

Take `CN(C)C(=S)/N=c1\ss/c(=N\S(=O)(=O)c2ccccc2)n1-c1ccccc1`: the TGI with IGROV1 ovarian, with SK-OV-3 ovarian, in the assay with SK-MEL-28 melanoma, in the assay with NCI-H23 lung and with DLD-1 colon was over 100 µM in each case.

With `CC(O)CN1C(=O)NC(Cc2ccccc2)C1=O` (stereo not drawn), the TGI in the assay with SK-MEL-28 melanoma, with NCI-H460 lung, with KM20L2 colon, with NCI-H23 lung and with DLD-1 colon was over 100 µM each time.

As to `CC1=C(C)C(=O)O[C@@H]([C@](C)(O)[C@]2(O)CC[C@@]3(O)[C@@H]4C[C@H]5O[C@]56CC=CC(=O)[C@]6(C)[C@H]4CC[C@]23C)C1`, the GI50 was 0.283 µM with IGROV1 ovarian; 0.909 µM in the assay on SK-OV-3 ovarian; 0.113 µM in the assay with HCT-116 colon; 0.233 µM in the assay with SK-MEL-28 melanoma; 2.76 µM in the assay on NCI/ADR-RES ovarian; 0.618 µM in the assay with NCI-H460 lung. Further, the GI50 in the assay on NCI-H23 lung is 0.254 µM; in the assay with DU-145 prostate it was 0.519 µM. Moreover, the TGI is 2.59 µM in the assay on IGROV1 ovarian; 18.8 µM in the assay with SK-OV-3 ovarian; 1.09 µM in the assay with HCT-116 colon; 1.92 µM in the assay on SK-MEL-28 melanoma; over 63.8 µM in the assay on NCI/ADR-RES ovarian; 2.4 µM in the assay with NCI-H460 lung. Further, the results for the TGI in the assay with NCI-H23 lung and in the assay with DU-145 prostate were 2.93 µM and 10.9 µM, respectively.

As to `CNc1nc(NC2CCCC2)nc(Sc2ccc(OC)cc2)n1`, the GI50 with IGROV1 ovarian, in the assay with SK-OV-3 ovarian, in the assay on HCT-116 colon, with SK-MEL-28 melanoma, with NCI/ADR-RES ovarian and with NCI-H460 lung was over 10 µM each time. Moreover, the GI50 in the assay on NCI-H23 lung and in the assay with DU-145 prostate was over 10 µM in each case. Also, the TGI with IGROV1 ovarian, in the assay with SK-OV-3 ovarian, in the assay with HCT-116 colon, with SK-MEL-28 melanoma, with NCI/ADR-RES ovarian and in the assay on NCI-H460 lung was over 10 µM in each case. The TGI with NCI-H23 lung and in the assay on DU-145 prostate was over 10 µM throughout.

`COC(=O)c1c(O)ccc2[nH]c(C)c(C#N)c12`: the GI50 in the assay with IGROV1 ovarian was 67.2 µM; in the assay on SK-OV-3 ovarian it was 97.5 µM; in the assay on HCT-116 colon, 22 µM; in the assay on SK-MEL-28 melanoma it was 65.9 µM; in the assay with NCI/ADR-RES ovarian, over 100 µM; in the assay with NCI-H460 lung, 37.3 µM. The figures for the GI50 with NCI-H23 lung and with DU-145 prostate were 77.1 µM and over 100 µM, respectively. For the same molecule, the TGI with IGROV1 ovarian is over 100 µM; in the assay with SK-OV-3 ovarian it was over 100 µM; with HCT-116 colon, 61.5 µM; in the assay on SK-MEL-28 melanoma, over 100 µM; with NCI/ADR-RES ovarian, over 100 µM; in the assay on NCI-H460 lung, over 100 µM. Moreover, the TGI in the assay with NCI-H23 lung and with DU-145 prostate was over 100 µM throughout.

Turning to `COC(=O)C(Cc1ccccc1)N/C=C\C(=O)c1ccc(Cl)cc1` (stereo not drawn), the GI50 in the assay on IGROV1 ovarian is over 100 µM; with SK-OV-3 ovarian, 26.7 µM; in the assay on HCT-116 colon it was 16.4 µM; with SK-MEL-28 melanoma, 45.4 µM; in the assay with NCI/ADR-RES ovarian it was 19.7 µM; in the assay with NCI-H460 lung it was 20.5 µM. Also, the results for the GI50 in the assay on NCI-H23 lung and in the assay on DU-145 prostate were 18.3 µM and 31.5 µM, respectively. Further, the TGI was over 100 µM in the assay with IGROV1 ovarian; 92.4 µM with SK-OV-3 ovarian; 36.9 µM in the assay on HCT-116 colon; over 100 µM in the assay on SK-MEL-28 melanoma; 50.4 µM with NCI/ADR-RES ovarian; 48.2 µM with NCI-H460 lung. Besides, the TGI is 45.7 µM in the assay on NCI-H23 lung and over 100 µM in the assay with DU-145 prostate.
